From patent publication US8563729B2, “Thienopyridone derivatives as AMP-activated protein kinase (AMPK) activators” (Merck Patent GmbH, priority 2008, dated 2013) come the findings set out here.

The target in test [1] is T1, AMPK protein (recombinant α1β1γ2) (Homo sapiens, UniProt Q13131+Q9Y478).
T1 construct: made in house; host or cells: E. coli
Kind of test: AMPK enzymatic activity (Delfia, AMARA peptide substrate). Type of test: biochemical. The settings on record: compound 30 μM vs AMP 30 μM; 125 μM ATP; ratio 90% or higher = direct activator. The procedure: The following biological test allows the determination of the efficacy of such compounds of formula (I) onto AMPK protein (recombinant α1β1γ2).
Human recombinant AMPK enzyme was expressed in E. Coli and was reactivated in vitro by LKB1 prior to enzyme activity determination.
AMPK enzyme activities were assayed by using A Delfia technology. AMPK enzyme activities were carried out in microtiter plates (50 mM Hepes buffer, pH 7.4 with 125 μM ATP respectively) in the presence of a synthetic peptide substrate (AMARAASAAALARRR, the “AMARA” peptide) and activators in serial dilutions. Reactions were initiated by the addition of AMPK (50-100 ng). Following mixing, the plates were incubated for 30 min at room temperature. Enzyme activity was assayed by using an anti-phosphoserine antibody to measure the quantity of phosphate incorporated into the AMARAA.
(§1) N°: Number of the molecule
Activity: Ratio between the % of control (basal activity) of compound of formula (I) at 30 μM and the % of control (basal activity) of AMP (natural substrate) at 30 μM.
Compounds of formula (I) in the table II are considered as direct activator of AMPK if the ratio is 90% or higher.

For the next test, the system named is H-2 Kb cells. Put plainly: Glucose uptake in H-2 Kb cells (in vitro cellular test). The settings on record: H-2 Kb cells differentiated in muscle, 4 hours incubation, 2-deoxy-D-[1,2 3H] glucose uptake 10 min. Type of test: cell-based, mouse. As to the method: Glucose Uptake in H-2 Kb Cells (In Vitro Cellular Test)
The following cellular test allows the determination of the effect of AMPK activators such as compounds of formula (I) onto glucose uptake in a muscle cellular model.
H-1-2 Kb cells derived from heterozygous H-2 Kb tsA58 transgenic mouse were grown in 24-well in plates coated with matrigel and were cultured at 33° C. for 4 days under permissive conditions, as described previously by Fryer et al. (Diabetes 49 (12): 1978, 2000).
For differentiation in muscle, cells were switched to non-permissive culture conditions (37° C. in the absence of interferon-γ). After 3 days, cells were incubated for 4 hours in DMEM 1 g/l glucose culture medium containing different concentrations of the tested molecules. Then glucose uptake was measured by incubating the cells for 10 min with radiolabelled 2-deoxy-D-[1,2 ^3H] glucose. Glucose uptake was terminated by rapidly washing the plates 2 times with ice-cold NaCl 0.9%. The cells were then solubilized in 0.1N NaOH for 30 min. Radioactivity was determined by liquid scintillation counting.
as §1
Activity (table III): Concentration of compound (I) for a glucose uptake equal or higher to glucose uptake induced by insulin (170 nM)
^++ or **concentration of compound (I) ≦10 micro Molar
^+ or *concentration of compound (I) >10 micro Molar

T1 sequence (Q13131 whole entry): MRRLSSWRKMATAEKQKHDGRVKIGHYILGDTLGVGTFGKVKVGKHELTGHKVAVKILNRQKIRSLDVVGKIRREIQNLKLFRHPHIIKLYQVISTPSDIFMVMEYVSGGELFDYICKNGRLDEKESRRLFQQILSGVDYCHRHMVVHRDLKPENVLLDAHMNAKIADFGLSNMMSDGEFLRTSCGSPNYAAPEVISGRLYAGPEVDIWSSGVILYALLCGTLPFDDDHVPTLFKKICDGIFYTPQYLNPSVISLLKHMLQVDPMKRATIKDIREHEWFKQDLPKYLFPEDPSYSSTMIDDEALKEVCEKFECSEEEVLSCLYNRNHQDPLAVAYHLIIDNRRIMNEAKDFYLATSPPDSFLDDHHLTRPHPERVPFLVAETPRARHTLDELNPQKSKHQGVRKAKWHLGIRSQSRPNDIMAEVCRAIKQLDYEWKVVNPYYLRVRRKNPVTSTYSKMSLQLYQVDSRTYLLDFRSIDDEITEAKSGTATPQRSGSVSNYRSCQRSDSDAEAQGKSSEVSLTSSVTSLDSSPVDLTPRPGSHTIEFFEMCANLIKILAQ
T1 sequence (Q9Y478 whole entry): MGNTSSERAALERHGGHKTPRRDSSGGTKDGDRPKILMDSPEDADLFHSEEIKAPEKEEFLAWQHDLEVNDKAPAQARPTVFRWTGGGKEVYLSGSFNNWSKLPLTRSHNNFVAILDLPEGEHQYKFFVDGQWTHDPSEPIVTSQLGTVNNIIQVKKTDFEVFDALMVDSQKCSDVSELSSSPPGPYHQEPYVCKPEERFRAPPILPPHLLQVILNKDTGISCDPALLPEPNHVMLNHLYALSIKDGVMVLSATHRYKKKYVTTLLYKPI
T1 sequence (Q9UGJ0 whole entry partner): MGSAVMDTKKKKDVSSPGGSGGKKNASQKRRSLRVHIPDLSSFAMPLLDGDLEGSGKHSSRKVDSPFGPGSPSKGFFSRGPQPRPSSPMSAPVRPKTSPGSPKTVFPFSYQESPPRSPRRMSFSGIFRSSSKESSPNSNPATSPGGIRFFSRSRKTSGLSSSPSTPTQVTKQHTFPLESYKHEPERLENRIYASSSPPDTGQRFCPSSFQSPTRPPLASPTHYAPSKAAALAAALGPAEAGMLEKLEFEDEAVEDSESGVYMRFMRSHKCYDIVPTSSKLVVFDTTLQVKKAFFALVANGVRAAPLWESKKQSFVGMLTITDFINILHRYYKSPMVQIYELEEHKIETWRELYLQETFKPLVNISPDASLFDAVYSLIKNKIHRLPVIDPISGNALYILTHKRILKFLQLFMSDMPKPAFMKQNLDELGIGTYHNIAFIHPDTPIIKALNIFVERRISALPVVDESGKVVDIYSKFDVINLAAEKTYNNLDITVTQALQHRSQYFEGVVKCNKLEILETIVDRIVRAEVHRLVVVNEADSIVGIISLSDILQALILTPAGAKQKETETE

Take `O=c1[nH]c2sc(Cl)c(-c3ccccc3)c2c(O)c1-c1ccccc1` [Compound 162]: in test [1], the “activity: Ratio between the % of control (basal activity) of compound of formula (I) at 30 μM and the % of control (basal activity) of AMP at 30 μM” value (from here on “activity: Ratio between the % of control”) is 107%. Further, the “Activity (table III): Concentration of compound (I) for a glucose uptake equal or higher to glucose uptake induced by insulin (170 nM)” value (shortened to “Activity (table III): Concentration”) with H-2 Kb cells was “** (^++ or **concentration of compound (I) ≦10 micro Molar)”.

With `N#Cc1cccc(-c2c(O)c3c(-c4ccc(F)cc4)c(Cl)sc3[nH]c2=O)c1` [Compound 131], the “activity: Ratio between the % of control” value in test [1] is 331%. Also, the “Activity (table III): Concentration” value in the test with H-2 Kb cells is “* (^+ or *concentration of compound (I) >10 micro Molar)”.

As to `COc1cccc(-c2csc3[nH]c(=O)c(-c4ccccc4)c(O)c23)c1` [Compound 47], the “activity: Ratio between the % of control” value in test [1] is given as 117%. In addition, the “Activity (table III): Concentration” value with H-2 Kb cells is on record as “* (^+ or *concentration of compound (I) >10 micro Molar)”.

`O=c1[nH]c2sc(Cl)c(-c3ccccc3F)c2c(O)c1-c1ccccc1` [Compound 119]: the “activity: Ratio between the % of control” value in test [1] was 101%. The “Activity (table III): Concentration” value in the test on H-2 Kb cells is “* (^+ or *concentration of compound (I) >10 micro Molar)”.

Consider `Cc1ccc(-c2c(O)c3c(-c4ccccc4)c(Cl)sc3[nH]c2=O)cc1` [Compound 174], for which, in test [1], the “activity: Ratio between the % of control” value was 245%. Also, the “Activity (table III): Concentration” value in the test with H-2 Kb cells is “+ (^+ or *concentration of compound (I) >10 micro Molar)”.

On to `CCc1ccc(-c2c(Cl)sc3[nH]c(=O)c(-c4ccccc4)c(O)c23)cc1` [Compound 181], for which, in test [1], the “activity: Ratio between the % of control” value is recorded as 559%. Besides, the “Activity (table III): Concentration” value in the test with H-2 Kb cells is “++ (^++ or **concentration of compound (I) ≦10 micro Molar)”.

Consider `Cc1ccc(-c2csc3[nH]c(=O)c(-c4ccccc4)c(O)c23)c(O)c1` [Compound 83, 4-hydroxy-3-(2-hydroxy-4-methylphenyl)-5-phenyl-6,7-dihydro-thieno[2,3-b]pyridin-6-one], for which the “activity: Ratio between the % of control” value in test [1] is listed as 403%. Also, the “Activity (table III): Concentration” value in the test on H-2 Kb cells was “* (^+ or *concentration of compound (I) >10 micro Molar)”.

For `Cc1ccc(-c2c(Cl)sc3[nH]c(=O)c(-c4ccccc4)c(O)c23)cc1C` [Compound 196], in test [1], the “activity: Ratio between the % of control” value was 165%. In addition, the “Activity (table III): Concentration” value in the test with H-2 Kb cells is reported as “++ (^++ or **concentration of compound (I) ≦10 micro Molar)”.

Turning to `O=c1[nH]c2sc(Cl)c(-c3ccccc3)c2c(O)c1-c1cccc(C(F)(F)F)c1` [Compound 143], the “activity: Ratio between the % of control” value in test [1] is listed as 99%. Besides, the “Activity (table III): Concentration” value in the test with H-2 Kb cells was “* (^+ or *concentration of compound (I) >10 micro Molar)”.

As for `Cc1ccc(-c2c(O)c3c(-c4ccc(C)cc4O)c(Cl)sc3[nH]c2=O)cc1` [Compound 194], the “activity: Ratio between the % of control” value in test [1] was 183%. For the same compound, in the test with H-2 Kb cells, the “Activity (table III): Concentration” value is “++ (^++ or **concentration of compound (I) ≦10 micro Molar)”.

Regarding `O=c1[nH]c2sc(Cl)c(-c3ccccc3)c2c(O)c1-c1cccc(F)c1` [Compound 175], in test [1], the “activity: Ratio between the % of control” value stood at 252%. In addition, the “Activity (table III): Concentration” value with H-2 Kb cells is reported as “+ (^+ or *concentration of compound (I) >10 micro Molar)”.

In the case of `O=c1[nH]c2sc(Cl)c(-c3ccccc3)c2c(O)c1-c1ccccc1F` [Compound 165], the “activity: Ratio between the % of control” value in test [1] amounted to 238%. In addition, the “Activity (table III): Concentration” value with H-2 Kb cells is “+ (^+ or *concentration of compound (I) >10 micro Molar)”.

As to `Cc1ccc(-c2c(Cl)sc3[nH]c(=O)c(-c4ccccc4)c(O)c23)c(O)c1` [Compound 104], the “activity: Ratio between the % of control” value in test [1] was found to be 236%. Also, the “Activity (table III): Concentration” value in the test with H-2 Kb cells is “* (^+ or *concentration of compound (I) >10 micro Molar)”.

As for `O=c1[nH]c2sc(Cl)c(-c3ccc(Cl)cc3)c2c(O)c1-c1ccccc1` [Compound 178], in test [1], the “activity: Ratio between the % of control” value worked out at 138%. Also, in the test with H-2 Kb cells, the “Activity (table III): Concentration” value was “++ (^++ or **concentration of compound (I) ≦10 micro Molar)”.

Take `O=c1[nH]c2sc(Cl)c(-c3ccccc3)c2c(O)c1-c1cccnc1` [Compound 166]: in test [1], the “activity: Ratio between the % of control” value worked out at 225%. In the test on H-2 Kb cells, the “Activity (table III): Concentration” value is “+ (^+ or *concentration of compound (I) >10 micro Molar)”.

Regarding `Cc1ccc(-c2csc3[nH]c(=O)c(-c4ccccc4)c(O)c23)c(O)c1F` [Compound 198], the “activity: Ratio between the % of control” value in test [1] turned out to be 363%. The “Activity (table III): Concentration” value in the test on H-2 Kb cells is given as “+ (^+ or *concentration of compound (I) >10 micro Molar)”.

Regarding `O=c1[nH]c2sc(Cl)c(-c3ccccc3)c2c(O)c1-c1cccc(O)c1` [Compound 148], in test [1], the “activity: Ratio between the % of control” value was 121%. Moreover, the “Activity (table III): Concentration” value with H-2 Kb cells is “** (^++ or **concentration of compound (I) ≦10 micro Molar)”.

Consider `Cc1ccc(-c2c(Cl)sc3[nH]c(=O)c(-c4ccccc4)c(O)c23)c(O)c1F` [Compound 210], for which, in test [1], the “activity: Ratio between the % of control” value was 181%. In addition, the “Activity (table III): Concentration” value in the test on H-2 Kb cells is on record as “++ (^++ or **concentration of compound (I) ≦10 micro Molar)”.

Turning to `COc1ccc(-c2c(O)c3c(-c4ccc(F)cc4O)csc3[nH]c2=O)cc1` [Compound 191], the “activity: Ratio between the % of control” value in test [1] is listed as 187%. Besides, the “Activity (table III): Concentration” value in the test with H-2 Kb cells is reported as “+ (^+ or *concentration of compound (I) >10 micro Molar)”.

For `O=c1[nH]c2sc(Cl)c(-c3ccccc3)c2c(O)c1-c1ccc(Cl)cc1` [Compound 173], the “activity: Ratio between the % of control” value in test [1] is reported as 160%. Besides, in the test on H-2 Kb cells, the “Activity (table III): Concentration” value is on record as “++ (^++ or **concentration of compound (I) ≦10 micro Molar)”.

As for `O=c1[nH]c2scc(-c3ccc(C(F)(F)F)cc3)c2c(O)c1-c1ccccc1` [Compound 36], the “activity: Ratio between the % of control” value in test [1] is given as 121%. Besides, in the test on H-2 Kb cells, the “Activity (table III): Concentration” value was “* (^+ or *concentration of compound (I) >10 micro Molar)”.

With `O=c1[nH]c2sc(Cl)c(-c3ccc(F)cc3)c2c(O)c1-c1ccccc1` [Compound 140], the “activity: Ratio between the % of control” value in test [1] was 123%. Also, the “Activity (table III): Concentration” value in the test with H-2 Kb cells is on record as “** (^++ or **concentration of compound (I) ≦10 micro Molar)”.

For `O=c1[nH]c2sc(Cl)c(-c3ccccc3)c2c(O)c1-c1ccc(F)cc1` [Compound 172], in test [1], the “activity: Ratio between the % of control” value was found to be 153%. Besides, the “Activity (table III): Concentration” value in the test with H-2 Kb cells is “+ (^+ or *concentration of compound (I) >10 micro Molar)”.

Take `COc1ccc(-c2c(Cl)sc3[nH]c(=O)c(-c4ccccc4)c(O)c23)c(F)c1` [Compound 115]: in test [1], the “activity: Ratio between the % of control” value worked out at 118%. Besides, the “Activity (table III): Concentration” value with H-2 Kb cells was “** (^++ or **concentration of compound (I) ≦10 micro Molar)”.
